Eight compounds from patent US11034650B2, “Compounds useful for treating a Mannheimia haemolytica or Histophilus somni infection” (Intervet Inc., priority 2016, dated 2021) can be followed below.

Converted amounts (≈) assume the structure as drawn.

Common to all, as to format: cell-based
The test system of test [1] is Mannheimia haemolytica MH 6357 (M7/2, reference strain, cattle infection strain). In words: MIC, broth-microdilution (CLSI VET01-A4), strain MH 6357. The following applies: Mannheimia haemolytica strain MH 6357, broth-microdilution; unit assumed. The gist of the method:
(§1)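 Broth microdilution per CLSI VET01-A4, using trays with a doubling dilution series of compound; results interpreted per CLSI VET01-S3. MIC taken as lowest concentration with no turbidity visible to the unaided eye.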

Test [2] concerns Mannheimia haemolytica MH 6374 (ATCC 33396, reference strain). In words: MIC, broth-microdilution (CLSI VET01-A4), strain MH 6374. As to conditions: Mannheimia haemolytica strain MH 6374, broth-microdilution; unit assumed. The gist of the method:
as §1
A general note: In broth dilution the organism is exposed to a series of concentrations in liquid medium.

The subject of test [3] is Mannheimia haemolytica MH 10720 (154, BRD field isolate). In words: MIC, broth-microdilution (CLSI VET01-A4), strain MH 10720. As to conditions: Mannheimia haemolytica strain MH 10720, broth-microdilution; unit assumed. The gist of the method: as §1
In test [4] the test system is Mannheimia haemolytica MH 12587 (1071, BRD field isolate, macrolide-resistance: erm+, E+). In words: MIC, broth-microdilution (CLSI VET01-A4), strain MH 12587. As to conditions: Mannheimia haemolytica strain MH 12587, broth-microdilution; unit assumed. The gist of the method:
as §1

In test [5] the test system is Mannheimia haemolytica MH 13065 (XB0446-6003.9, BRD field isolate). In words: MIC, broth-microdilution (CLSI VET01-A4), strain MH 13065. As to conditions: Mannheimia haemolytica strain MH 13065, broth-microdilution; unit assumed. The gist of the method:
as §1

In test [6] the test system is Mannheimia haemolytica MH 13093 (XB0472-6014.1, BRD field isolate). In words: MIC, broth-microdilution (CLSI VET01-A4), strain MH 13093. As to conditions: Mannheimia haemolytica strain MH 13093, broth-microdilution; unit assumed. The gist of the method: as §1
The test system of test [7] is Pasteurella multocida PM 6267 (P 2225 (L386), reference strain, mouse infection strain). In words: MIC, broth-microdilution (CLSI VET01-A4), strain PM 6267. As to conditions: Pasteurella multocida strain PM 6267, broth-microdilution; unit assumed. The gist of the method: as §1
In test [8] the test system is Pasteurella multocida PM 6391 (ATCC 43137, reference strain). Kind of test: MIC, broth-microdilution (CLSI VET01-A4), strain PM 6391. As to conditions: Pasteurella multocida strain PM 6391, broth-microdilution; unit assumed. The gist of the method: as §1
For test [9], the system named is Pasteurella multocida PM 10775 (080130003051, BRD field isolate). In words: MIC, broth-microdilution (CLSI VET01-A4), strain PM 10775. As to conditions: Pasteurella multocida strain PM 10775, broth-microdilution; unit assumed. The gist of the method:
as §1

Test [10] has as its system Pasteurella multocida PM 12080 (IV102277-0093, BRD field isolate). Kind of test: MIC, broth-microdilution (CLSI VET01-A4), strain PM 12080. The following applies: Pasteurella multocida strain PM 12080, broth-microdilution; unit assumed. The gist of the method: as §1

In test [1], `CC(C)(C(NC(=O)c1ccc(C#Cc2ccc(CNCc3cccs3)cc2)cc1)C(=O)NO)[N+](=O)[O-]` (centres unmarked) [Compound 289] returned an MIC MH 6357 of 0.4 µg/mL (≈ 0.79 µM). For the same compound, in [2], the MIC MH 6374 stood at 0.8 µg/mL (≈ 1.58 µM). The MIC MH 10720 in test [3] was at most 0.1 µg/mL. Also, the MIC MH 12587 in [4] came out at 1.6 µg/mL (≈ 3.16 µM). Moreover, the MIC MH 13065 in test [5] turned out to be 0.8 µg/mL (≈ 1.58 µM). The compound also yielded an MIC MH 13093 in test [6] of 0.8 µg/mL (≈ 1.58 µM). Also, the MIC PM 6267 in [7] came out at 0.8 µg/mL (≈ 1.58 µM). In test [8], this compound showed an MIC PM 6391 of 0.4 µg/mL (≈ 0.79 µM). The compound also gave an MIC PM 10775 in test [9] of 0.4 µg/mL (≈ 0.79 µM). For the same compound, in [10], the MIC PM 12080 is at most 0.1 µg/mL.

As for `CC(C)(O)[C@H](NC(=O)c1ccc(C#Cc2ccc(CNC3CC3)s2)cc1)C(=O)NO` [Compound 290], the MIC MH 6357 in test [1] is at most 0.1 µg/mL. The compound further yielded an MIC MH 6374 in [2] of at most 0.1 µg/mL. Moreover, the MIC MH 10720 in test [3] is at most 0.1 µg/mL. The compound further had an MIC MH 12587 in test [4] of 0.4 µg/mL (≈ 0.936 µM). The compound further registered an MIC MH 13065 in [5] of at most 0.1 µg/mL. In [6], the MIC MH 13093 was 0.2 µg/mL (≈ 0.468 µM). Further, in test [7], the MIC PM 6267 was at most 0.1 µg/mL. The MIC PM 6391 in [8] is 0.2 µg/mL (≈ 0.468 µM). Besides, in test [9], the MIC PM 10775 is at most 0.1 µg/mL. Also, the MIC PM 12080 in test [10] is at most 0.1 µg/mL.

Compound `C=CCNCc1ccc(C#Cc2ccc(C(=O)N[C@H](C(=O)NO)C(C)(C)O)cc2)s1` [Compound 291] returned an MIC MH 6357 in test [1] of at most 0.1 µg/mL. Further, the MIC MH 6374 in [2] was at most 0.1 µg/mL. In test [3], this compound displayed an MIC MH 10720 of at most 0.1 µg/mL. Besides, the MIC MH 12587 in test [4] was 0.8 µg/mL (≈ 1.87 µM). The MIC MH 13065 in [5] was found to be 0.4 µg/mL (≈ 0.936 µM). This compound registered an MIC MH 13093 in test [6] of 0.4 µg/mL (≈ 0.936 µM). In test [7], the MIC PM 6267 was 0.8 µg/mL (≈ 1.87 µM). Also, the MIC PM 6391 in test [8] worked out at 0.4 µg/mL (≈ 0.936 µM). In test [9], this compound returned an MIC PM 10775 of at most 0.1 µg/mL. Besides, the MIC PM 12080 in test [10] is at most 0.1 µg/mL.

`CC(C)(O)[C@H](NC(=O)c1ccc(C#Cc2ccc(CN3CCOCC3)s2)cc1)C(=O)NO` [Compound 293]: the MIC MH 6357 in test [1] came to 0.4 µg/mL (≈ 0.874 µM). This compound also had an MIC MH 6374 in [2] of 0.8 µg/mL (≈ 1.75 µM). The compound also had an MIC MH 10720 in test [3] of at most 0.1 µg/mL. Besides, the MIC MH 12587 in [4] came to 0.8 µg/mL (≈ 1.75 µM). Moreover, the MIC MH 13065 in [5] is 0.4 µg/mL (≈ 0.874 µM). This compound also returned an MIC MH 13093 in test [6] of 0.8 µg/mL (≈ 1.75 µM). The compound also had an MIC PM 6267 in test [7] of 1.6 µg/mL (≈ 3.5 µM). In test [8], this compound registered an MIC PM 6391 of 0.2 µg/mL (≈ 0.437 µM). This compound also displayed an MIC PM 10775 in test [9] of at most 0.1 µg/mL. The MIC PM 12080 in test [10] was at most 0.1 µg/mL.

`CC(C)(O)[C@H](NC(=O)c1ccc(C#Cc2ccc(CNCc3ccccc3)s2)cc1)C(=O)NO` [Compound 294]: the MIC MH 6357 in [1] was at most 0.1 µg/mL. The compound also showed an MIC MH 6374 in test [2] of 0.2 µg/mL (≈ 0.419 µM). Further, the MIC MH 10720 in test [3] is at most 0.1 µg/mL. Moreover, in [4], the MIC MH 12587 came to 0.4 µg/mL (≈ 0.838 µM). Moreover, the MIC MH 13065 in test [5] was at most 0.1 µg/mL. The same compound returned an MIC MH 13093 in [6] of 0.4 µg/mL (≈ 0.838 µM). Moreover, the MIC PM 6267 in [7] is 0.8 µg/mL (≈ 1.68 µM). Moreover, the MIC PM 6391 in test [8] stood at 0.2 µg/mL (≈ 0.419 µM). In test [9], the MIC PM 10775 was at most 0.1 µg/mL. The same compound had an MIC PM 12080 in test [10] of at most 0.1 µg/mL.

`COc1ccc(CNCc2ccc(C#Cc3ccc(C(=O)N[C@H](C(=O)NO)C(C)(C)O)cc3)s2)cc1` [Compound 295] gave an MIC MH 6357 in test [1] of at most 0.1 µg/mL. In [2], this compound had an MIC MH 6374 of 0.4 µg/mL (≈ 0.788 µM). Moreover, the MIC MH 10720 in test [3] was at most 0.1 µg/mL. Moreover, the MIC MH 12587 in [4] was 0.8 µg/mL (≈ 1.58 µM). This compound registered an MIC MH 13065 in test [5] of 0.2 µg/mL (≈ 0.394 µM). The MIC MH 13093 in test [6] worked out at 0.4 µg/mL (≈ 0.788 µM). The MIC PM 6267 in [7] amounted to 0.8 µg/mL (≈ 1.58 µM). Besides, the MIC PM 6391 in [8] stood at 0.4 µg/mL (≈ 0.788 µM). In test [9], this compound gave an MIC PM 10775 of at most 0.1 µg/mL. The compound also displayed an MIC PM 12080 in test [10] of at most 0.1 µg/mL.

Turning to `CC(C)(O)[C@H](NC(=O)c1ccc(C#Cc2ccc(CNCc3cccnc3)s2)cc1)C(=O)NO` [Compound 296], the MIC MH 6357 in [1] is at most 0.1 µg/mL. The compound also yielded an MIC MH 6374 in [2] of 0.2 µg/mL (≈ 0.418 µM). In test [3], the MIC MH 10720 was at most 0.1 µg/mL. The compound further displayed an MIC MH 12587 in test [4] of 0.4 µg/mL (≈ 0.836 µM). Also, the MIC MH 13065 in [5] was at most 0.1 µg/mL. The compound also gave an MIC MH 13093 in test [6] of 0.4 µg/mL (≈ 0.836 µM). This compound also gave an MIC PM 6267 in test [7] of 0.8 µg/mL (≈ 1.67 µM). The MIC PM 6391 in test [8] was at most 0.1 µg/mL. The compound also registered an MIC PM 10775 in test [9] of at most 0.1 µg/mL. In [10], this compound returned an MIC PM 12080 of at most 0.1 µg/mL.

In test [1], `CC(C)(O)[C@H](NC(=O)c1ccc(C#Cc2ccc(CNCc3ccccn3)s2)cc1)C(=O)NO` [Compound 297] yielded an MIC MH 6357 of 0.2 µg/mL (≈ 0.418 µM). The MIC MH 6374 in test [2] turned out to be 0.4 µg/mL (≈ 0.836 µM). Also, the MIC MH 10720 in test [3] was at most 0.1 µg/mL. Moreover, the MIC MH 12587 in [4] was found to be 0.8 µg/mL (≈ 1.67 µM). Moreover, the MIC MH 13065 in [5] worked out at 0.4 µg/mL (≈ 0.836 µM). In addition, the MIC MH 13093 in test [6] turned out to be 0.4 µg/mL (≈ 0.836 µM). In test [7], this compound returned an MIC PM 6267 of 0.4 µg/mL (≈ 0.836 µM). The compound further gave an MIC PM 6391 in test [8] of at most 0.1 µg/mL. The MIC PM 10775 in test [9] is at most 0.1 µg/mL. This compound showed an MIC PM 12080 in [10] of 0.2 µg/mL (≈ 0.418 µM).
